Laboratory results taken from US10646575B2, “Heterocyclic degronimers for target protein degradation” (C4 Therapeutics, Inc., priority 2016, dated 2020).

Target: CRBN-DDB1 (Homo sapiens (Human), UniProt Q96SW2)
Assay: CRBN-DDB1 fluorescence polarization (FP) binding assay
Settings: displacement of (−)-Thalidomide-Alexa Fluor or Pomalidomide-fluorescein probe; 400 nM CRBN-DDB1, 5 nM probe, 60 min, room temperature
Experimental: Measuring compound ligand binding to CRBN-DDB1 was carried out using an established sensitive and quantitative in vitro fluorescence polarization (FP) based binding assay. […] Compounds were dispensed from serially diluted DMSO stock into black 384-well compatible fluorescence polarization plates using an Echo acoustic dispenser. Compound binding to CRBN-DDB1 was measured by displacement of either a (−)-Thalidomide-Alexa Fluor® or Pomalidomide-fluorescein conjugated probe dye. […] Matching control wells excluding CRBN-DDB1 were used to correct for background fluorescence. Plates were read on an Envision plate reader with appropriate FP filter sets. The corrected S (perpendicular) and P (parallel) values were used to calculate fluorescence polarization (FP) with the following equation: FP=1000*(S−G*P)/(S+G*P).

CRBN-DDB1, sequence (Q96SW2 whole entry): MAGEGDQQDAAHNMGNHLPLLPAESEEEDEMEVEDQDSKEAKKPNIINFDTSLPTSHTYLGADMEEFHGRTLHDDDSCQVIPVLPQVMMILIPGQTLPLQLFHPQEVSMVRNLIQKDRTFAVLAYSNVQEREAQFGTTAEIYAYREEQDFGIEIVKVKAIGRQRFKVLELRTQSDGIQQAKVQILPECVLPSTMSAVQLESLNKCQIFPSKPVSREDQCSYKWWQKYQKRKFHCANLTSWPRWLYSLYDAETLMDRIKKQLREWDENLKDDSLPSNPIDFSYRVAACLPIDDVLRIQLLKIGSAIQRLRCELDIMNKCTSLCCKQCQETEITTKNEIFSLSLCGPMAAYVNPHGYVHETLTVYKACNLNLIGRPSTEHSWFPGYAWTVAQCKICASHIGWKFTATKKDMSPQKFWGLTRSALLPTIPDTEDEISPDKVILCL
CRBN-DDB1, sequence (Q16531 whole entry partner): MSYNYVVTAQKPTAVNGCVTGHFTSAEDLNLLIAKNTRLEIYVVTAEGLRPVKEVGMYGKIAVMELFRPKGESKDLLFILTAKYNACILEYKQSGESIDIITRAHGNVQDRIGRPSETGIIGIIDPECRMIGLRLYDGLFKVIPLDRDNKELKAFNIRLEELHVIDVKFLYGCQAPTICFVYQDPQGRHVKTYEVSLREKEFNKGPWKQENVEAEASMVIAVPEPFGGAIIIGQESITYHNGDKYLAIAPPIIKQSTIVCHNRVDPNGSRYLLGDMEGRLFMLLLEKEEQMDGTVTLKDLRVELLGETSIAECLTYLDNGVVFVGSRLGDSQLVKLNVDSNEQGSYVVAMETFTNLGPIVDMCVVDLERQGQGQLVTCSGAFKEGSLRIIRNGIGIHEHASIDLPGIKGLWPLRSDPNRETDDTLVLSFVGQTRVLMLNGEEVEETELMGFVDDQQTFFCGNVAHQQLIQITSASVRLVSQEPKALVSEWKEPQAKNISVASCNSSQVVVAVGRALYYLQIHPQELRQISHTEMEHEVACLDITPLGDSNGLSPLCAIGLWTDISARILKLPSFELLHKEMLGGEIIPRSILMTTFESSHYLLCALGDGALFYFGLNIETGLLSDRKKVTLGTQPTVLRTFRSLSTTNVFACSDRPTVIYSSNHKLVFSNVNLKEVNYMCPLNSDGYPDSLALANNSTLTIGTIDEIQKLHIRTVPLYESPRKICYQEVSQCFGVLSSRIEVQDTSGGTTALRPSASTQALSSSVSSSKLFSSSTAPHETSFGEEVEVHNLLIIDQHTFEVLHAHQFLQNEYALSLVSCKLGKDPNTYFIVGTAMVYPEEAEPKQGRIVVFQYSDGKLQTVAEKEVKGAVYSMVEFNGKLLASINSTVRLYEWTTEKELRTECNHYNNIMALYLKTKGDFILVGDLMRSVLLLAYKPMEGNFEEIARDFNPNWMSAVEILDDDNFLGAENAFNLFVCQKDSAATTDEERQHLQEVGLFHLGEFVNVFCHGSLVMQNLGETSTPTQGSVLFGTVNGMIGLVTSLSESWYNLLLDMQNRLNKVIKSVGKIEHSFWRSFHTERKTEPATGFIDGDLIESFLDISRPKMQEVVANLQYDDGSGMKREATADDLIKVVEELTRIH

In the case of O=C1NC(=O)C2(CC2)CC1N1C(=O)c2ccccc2C1=O (stereo not shown) [Compound 3, 2-(4,6-dioxo-5-azaspiro[2.5]octan-7-yl)isoindoline-1,3-dione], the Kd is reported as 1 to 1000 µM.
